According to publication PMC7429850, “Critical enzymes for biosynthesis of cucurbitacin derivatives in watermelon and their biological significance” (Communications Biology, 2020):

Test system: T1, ACT3 (Cla022713)
T1 construct: plant material in Methods: Number One
Type: biochemical, Citrullus lanatus
Conditions: 10 mM acetyl-CoA, 50 mM sodium phosphate pH 7.4, 30 °C; C16-O-acetylation
Source text: acetylation assay, product by HPLC/LC-MS, Michaelis-Menten fit on ACT3 (Cla022713)

Compound `CC(=O)OC(C)(C)/C=C/C(=O)[C@](C)(O)[C@H]1[C@H](O)C[C@@]2(C)[C@@H]3CC=C4[C@@H](C[C@H](O)C(=O)C4(C)C)[C@]3(C)C(=O)C[C@]12C` [CuB] has a Km of 11.8 ± 1.74 µM.

With `CC(C)(O)/C=C/C(=O)[C@](C)(O)[C@H]1[C@H](O)C[C@@]2(C)[C@@H]3CC=C4[C@@H](C=C(O)C(=O)C4(C)C)[C@]3(C)C(=O)C[C@]12C` [CuI] the Km was 8.62 ± 0.95 µM.

In the case of `CC(C)(O)/C=C/C(=O)[C@](C)(O)[C@H]1[C@H](O)C[C@@]2(C)[C@@H]3CC=C4[C@@H](C[C@H](O)C(=O)C4(C)C)[C@]3(C)C(=O)C[C@]12C` [CuD], the Km is reported as 10.4 ± 1.19 µM.

For `CC(=O)OC(C)(C)/C=C/C(=O)[C@](C)(O)[C@H]1[C@H](O)C[C@@]2(C)[C@@H]3CC=C4[C@@H](C=C(O[C@@H]5O[C@H](CO)[C@@H](O)[C@H](O)[C@H]5O)C(=O)C4(C)C)[C@]3(C)C(=O)C[C@]12C` [CuE-Glu], the Km was 11.6 ± 1.62 µM.

Work on `CC(=O)OC(C)(C)/C=C/C(=O)[C@](C)(O)[C@H]1[C@H](O)C[C@@]2(C)[C@@H]3CC=C4[C@@H](C=C(O)C(=O)C4(C)C)[C@]3(C)C(=O)C[C@]12C` [CuE] yielded a Km of 7.63 ± 4.83 µM.
